Source: ChEMBL document CHEMBL1201862, “PubChem BioAssay data set” (2004)
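How tested: cells in 96-well plates exposed to compound for 48 hours at five concentrations. GI50 = concentration required for 50% inhibition of growth.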 Active and inactive are the calls of the source. Rule as the data show it: active = GI50 up to about 1.1 µM and inactive = higher.

Legend:
Assay in all cases: growth of human tumour cells (NCI), 48 h
786-0 = system: 786-0
A498 = system: A498
A549 = system: A549
ACHN = system: ACHN
BT-549 = system: BT-549
CAKI-1 = system: CAKI-1
CCRF-CEM = system: CCRF-CEM
COLO 205 = system: COLO 205
DU-145 = system: DU-145
EKVX = system: EKVX
HCC 2998 = system: HCC 2998
HCT-116 = system: HCT-116
HCT-15 = system: HCT-15
HL-60 = system: HL-60
HOP-62 = system: HOP-62
HOP-92 = system: HOP-92
HT-29 = system: HT-29
Hs-578T = system: Hs-578T
IGROV-1 = system: IGROV-1
K562 = system: K562
KM12 = system: KM12
LOX IMVI = system: LOX IMVI
M14 = system: M14
MCF7 = system: MCF7
MDA-MB-231 = system: MDA-MB-231
MDA-MB-435 = system: MDA-MB-435
MDA-N = system: MDA-N
MOLT-4 = system: MOLT-4
Malme-3M = system: Malme-3M
NCI-H226 = system: NCI-H226
NCI-H23 = system: NCI-H23
NCI-H460 = system: NCI-H460
NCI-H522 = system: NCI-H522
NCI/ADR-RES = system: NCI/ADR-RES
OVCAR-3 = system: OVCAR-3
OVCAR-4 = system: OVCAR-4
OVCAR-5 = system: OVCAR-5
OVCAR-8 = system: OVCAR-8
PC-3 = system: PC-3
RPMI-8226 = system: RPMI-8226
RXF 393 = system: RXF 393
SF-268 = system: SF-268
SF-295 = system: SF-295
SF-539 = system: SF-539
SK-MEL-28 = system: SK-MEL-28
SK-MEL-2 = system: SK-MEL-2
SK-MEL-5 = system: SK-MEL-5
SK-OV-3 = system: SK-OV-3
SN12C = system: SN12C
SNB-19 = system: SNB-19
SNB-75 = system: SNB-75
SR = system: SR
SW-620 = system: SW-620
T47D = system: T47D
TK-10 = system: TK-10
U-251 = system: U-251
UACC-257 = system: UACC-257
UACC-62 = system: UACC-62
UO-31 = system: UO-31

Measured: GI50

N#CC(c1ccccc1)N1CCCN(C(C#N)c2ccccc2)C1c1ccccc1O (stereo unspecified)
inactive: 786-0 > 100 µM | A498 > 100 µM | A549 > 100 µM | ACHN > 100 µM | BT-549 > 100 µM | CAKI-1 > 100 µM | CCRF-CEM 40.1 µM | COLO 205 > 100 µM | DU-145 > 100 µM | EKVX > 100 µM | HCC 2998 > 100 µM | HCT-116 93.5 µM | HOP-62 > 100 µM | HOP-92 22.7 µM | HT-29 55.8 µM | Hs-578T > 100 µM | IGROV-1 > 100 µM | K562 > 100 µM | KM12 > 100 µM | LOX IMVI > 100 µM | M14 > 100 µM | MCF7 > 100 µM | MDA-MB-231 > 100 µM | MDA-MB-435 > 100 µM | MDA-N > 100 µM | MOLT-4 61.1 µM | Malme-3M > 100 µM | NCI-H226 > 100 µM | NCI-H23 > 100 µM | NCI-H460 > 100 µM | NCI-H522 > 100 µM | NCI/ADR-RES > 100 µM | OVCAR-3 48.3 µM | OVCAR-4 > 100 µM | OVCAR-5 > 100 µM | OVCAR-8 > 100 µM | PC-3 > 100 µM | RPMI-8226 60.5 µM | RXF 393 > 100 µM | SF-268 > 100 µM | SF-295 > 100 µM | SF-539 52.1 µM | SK-MEL-28 > 100 µM | SK-MEL-2 > 100 µM | SK-MEL-5 > 100 µM | SK-OV-3 > 100 µM | SN12C > 100 µM | SNB-19 > 100 µM | SNB-75 > 100 µM | SR > 100 µM | SW-620 > 100 µM | T47D > 100 µM | TK-10 > 100 µM | U-251 > 100 µM | UACC-257 > 100 µM | UACC-62 > 100 µM | UO-31 > 100 µM
active: HL-60 0.0362 µM
> 100 µM: HCT-15

O=C1C(Cl)C2(CC(/C=C/c3ccccc3Cl)=NN2c2cccc(S(=O)(=O)O)c2)N1c1nc2ccccc2s1 (stereo unspecified)
15.8 µM: HCT-15
inactive: 786-0 21.9 µM | A498 66.7 µM | A549 72.1 µM | ACHN 42.7 µM | BT-549 > 100 µM | CAKI-1 17.2 µM | CCRF-CEM 8.11 µM | COLO 205 > 100 µM | DU-145 21.2 µM | EKVX 49 µM | HCC 2998 85.9 µM | HCT-116 49.7 µM | HL-60 6.67 µM | HOP-92 36.6 µM | HT-29 98.2 µM | Hs-578T 81.8 µM | IGROV-1 26.9 µM | K562 2.11 µM | KM12 14.7 µM | LOX IMVI 12.4 µM | M14 72.6 µM | MCF7 21.6 µM | MDA-MB-231 79.8 µM | MDA-MB-435 1.5 µM | MDA-N 46 µM | MOLT-4 10.3 µM | Malme-3M 27 µM | NCI-H226 30.2 µM | NCI-H23 33.6 µM | NCI-H460 63.5 µM | NCI-H522 12.6 µM | NCI/ADR-RES > 100 µM | OVCAR-4 29.1 µM | OVCAR-5 > 100 µM | OVCAR-8 26.5 µM | PC-3 66.4 µM | RPMI-8226 9.29 µM | RXF 393 42.8 µM | SF-268 66.4 µM | SF-539 7.67 µM | SK-MEL-28 > 100 µM | SK-MEL-2 > 100 µM | SK-MEL-5 21.4 µM | SN12C 93.5 µM | SNB-19 > 100 µM | SNB-75 43.5 µM | SR 1.35 µM | SW-620 19.4 µM | T47D 11.3 µM | TK-10 24.2 µM | U-251 41.7 µM | UACC-257 66.8 µM | UACC-62 18.9 µM | UO-31 4.82 µM

Cc1cnc2[nH]c(-c3cccc(F)c3)cc(=O)c2c1
active: 786-0 0.0384 µM | A498 0.0579 µM | A549 0.0515 µM | ACHN 0.0664 µM | BT-549 0.0757 µM | CAKI-1 0.0317 µM | CCRF-CEM 0.0353 µM | COLO 205 0.0214 µM | DU-145 0.0459 µM | EKVX 0.2 µM | HCC 2998 0.111 µM | HCT-116 0.034 µM | HL-60 0.0186 µM | HOP-62 0.0662 µM | HT-29 0.0308 µM | Hs-578T 0.0121 µM | IGROV-1 0.161 µM | K562 0.0266 µM | KM12 0.0327 µM | LOX IMVI 0.0668 µM | M14 0.0342 µM | MCF7 0.115 µM | MDA-MB-231 0.0505 µM | MDA-MB-435 < 0.01 µM | MDA-N 0.0112 µM | MOLT-4 0.0531 µM | Malme-3M 0.0232 µM | NCI-H226 0.0432 µM | NCI-H23 0.151 µM | NCI-H460 0.0411 µM | NCI-H522 0.0255 µM | NCI/ADR-RES 0.0146 µM | OVCAR-3 0.0139 µM | OVCAR-5 0.0738 µM | OVCAR-8 0.0582 µM | PC-3 0.0239 µM | RPMI-8226 0.0402 µM | RXF 393 0.0418 µM | SF-268 0.0705 µM | SF-295 0.0322 µM | SF-539 0.0326 µM | SK-MEL-28 0.0352 µM | SK-MEL-2 0.0802 µM | SK-MEL-5 0.0329 µM | SK-OV-3 0.0368 µM | SN12C 0.0687 µM | SNB-19 0.0546 µM | SNB-75 0.0171 µM | SR 0.0229 µM | SW-620 0.0252 µM | TK-10 0.161 µM | U-251 0.0405 µM | UACC-62 0.0392 µM | UO-31 0.0724 µM
inactive: HOP-92 1.4 µM | OVCAR-4 1.31 µM | T47D 15.6 µM | UACC-257 > 100 µM
0.0267 µM: HCT-15

Clc1ccc(C2C3COc4ccccc4C3=NN2c2ccccc2)cc1 (stereo unspecified)
inactive: 786-0 > 29.6 µM | A498 > 100 µM | A549 > 100 µM | ACHN > 100 µM | BT-549 68.5 µM | CAKI-1 58.9 µM | CCRF-CEM 2.38 µM | COLO 205 > 100 µM | DU-145 > 80.5 µM | EKVX > 100 µM | HCC 2998 > 100 µM | HCT-116 33.2 µM | HL-60 27.4 µM | HOP-62 > 100 µM | HOP-92 > 100 µM | HT-29 29.4 µM | Hs-578T 54.2 µM | IGROV-1 > 69 µM | K562 3.19 µM | KM12 20.7 µM | LOX IMVI 7.19 µM | M14 96.8 µM | MCF7 3.84 µM | MDA-MB-231 59.3 µM | MDA-MB-435 36.5 µM | MDA-N 22.8 µM | MOLT-4 8.73 µM | Malme-3M > 100 µM | NCI-H226 30 µM | NCI-H23 > 91.6 µM | NCI-H460 > 100 µM | NCI-H522 17.8 µM | NCI/ADR-RES 29.7 µM | OVCAR-3 > 57.3 µM | OVCAR-4 > 100 µM | OVCAR-5 > 100 µM | OVCAR-8 > 69.5 µM | PC-3 > 67.1 µM | RPMI-8226 2.1 µM | RXF 393 95.5 µM | SF-268 44.7 µM | SF-295 > 100 µM | SF-539 34.4 µM | SK-MEL-28 99.5 µM | SK-MEL-2 > 75.3 µM | SK-MEL-5 > 82.8 µM | SK-OV-3 > 100 µM | SN12C 43.6 µM | SNB-19 > 46.9 µM | SNB-75 > 70.3 µM | SW-620 5.05 µM | T47D > 69.7 µM | TK-10 > 100 µM | U-251 36.1 µM | UACC-257 > 100 µM | UACC-62 64.7 µM | UO-31 > 100 µM
17.9 µM: HCT-15
active: SR 0.198 µM

CCCC(=O)Nc1cc(/C=C/C(=O)N2C[C@@H]3C[C@]34C2=CC(=O)c2[nH]cc(C)c24)n(C)c1
0.723 µM: HCT-15
active: 786-0 0.0757 µM | A498 0.236 µM | A549 0.318 µM | ACHN 0.0689 µM | BT-549 0.29 µM | CAKI-1 0.1 µM | CCRF-CEM 0.0321 µM | COLO 205 0.293 µM | DU-145 0.0673 µM | EKVX 0.644 µM | HCC 2998 0.0931 µM | HCT-116 0.0841 µM | HL-60 0.0471 µM | HOP-62 0.769 µM | HOP-92 0.372 µM | HT-29 0.208 µM | Hs-578T 0.668 µM | IGROV-1 0.329 µM | K562 0.0661 µM | KM12 0.653 µM | LOX IMVI 0.0733 µM | M14 0.297 µM | MCF7 0.0596 µM | MDA-MB-231 0.38 µM | MDA-MB-435 0.285 µM | MDA-N 0.361 µM | MOLT-4 0.0257 µM | Malme-3M 0.0746 µM | NCI-H226 0.313 µM | NCI-H23 0.0927 µM | NCI-H460 0.221 µM | NCI-H522 0.0432 µM | NCI/ADR-RES 0.778 µM | OVCAR-3 0.429 µM | OVCAR-4 0.256 µM | OVCAR-5 1.05 µM | OVCAR-8 0.0533 µM | PC-3 0.259 µM | RPMI-8226 0.675 µM | RXF 393 0.0711 µM | SF-268 0.083 µM | SF-295 0.453 µM | SF-539 0.166 µM | SK-MEL-28 0.408 µM | SK-MEL-2 0.261 µM | SK-MEL-5 0.0748 µM | SK-OV-3 0.975 µM | SN12C 0.47 µM | SNB-19 0.745 µM | SNB-75 0.345 µM | SR 0.0149 µM | SW-620 0.0706 µM | T47D 0.0867 µM | TK-10 0.495 µM | U-251 0.0702 µM | UACC-257 0.098 µM | UACC-62 0.0682 µM | UO-31 0.473 µM
